US4746736A, “Carbapenem antibiotics” (priority 1986, dated 1988)
Converted amounts (≈) assume the structure as drawn. Read-outs that look alike come from different tables or passages of the source.

Experiments:
Type in all cases: cell-based
P. rettgeri A22424 = experiment: In vitro MIC by tube dilution, P. rettgeri A22424; details: Providencia rettgeri, A22424, P. rettgeri A22424; read-out: MIC
E. cloacae A-9659 = experiment: In vitro MIC by tube dilution, E. cloacae A-9659; details: Enterobacter cloacae, A9659, E. cloacae A-9659; read-out: MIC
S. pyogenes A9604 = experiment: In vitro MIC by tube dilution, S. pyogenes A9604; details: Streptococcus pyogenes, A9604, S. pyogenes A-9604; read-out: MIC
[1] = tested on: S. aureus A-9606 (Pen-res.); experiment: In vitro MIC by tube dilution, S. aureus A-9606 (Pen-res.); details: Staphylococcus aureus, S. aureus A-9606 (Pen-res); read-out: MIC
S. aureus A-9537 = experiment: In vitro MIC by tube dilution, S. aureus A-9537; details: Staphylococcus aureus, read-out: MIC
P. morganii A15153 = experiment: In vitro MIC by tube dilution, P. morganii (M. morganii) A15153; details: Morganella morganii, A15153, M. morganii A15153; read-out: MIC
P. aeruginosa A-9843A = experiment: In vitro MIC by tube dilution, P. aeruginosa A-9843A; details: Pseudomonas aeruginosa, A9843A, P. aeruginosa A-9843a; read-out: MIC
S. pneumoniae A-9585 = experiment: In vitro MIC by tube dilution, S. pneumoniae A-9585; details: Streptococcus pneumoniae, A9585, S. pneumoniae A-9585; read-out: MIC
E. coli A20341-1 = experiment: In vitro MIC by tube dilution, E. coli A20341-1; details: Escherichia coli, A203411, read-out: MIC
P. mirabilis A-9900 = experiment: In vitro MIC by tube dilution, P. mirabilis A-9900; details: Proteus mirabilis, A9900, P. mirabilis A-9900; read-out: MIC
S. faecalis A20688 = experiment: In vitro MIC by tube dilution, S. faecalis A20688; details: Enterococcus faecalis, A20688, S. faecalis A20688; read-out: MIC
E. cloacae A-9656 = experiment: In vitro MIC by tube dilution, E. cloacae A-9656; details: Enterobacter cloacae, A9656, E. cloacae A-9656; read-out: MIC
S. marcescens A20019 = experiment: In vitro MIC by tube dilution, S. marcescens A20019; details: Serratia marcescens, read-out: MIC
K. pneumoniae A20468 = experiment: In vitro MIC by tube dilution, K. pneumoniae A20468; details: Klebsiella pneumoniae, A20468, K. pneumoniae A20468; read-out: MIC
E. coli A15119 = experiment: In vitro MIC by tube dilution, E. coli A15119; details: Escherichia coli, read-out: MIC
K. pneumoniae A-9664 = experiment: In vitro MIC by tube dilution, K. pneumoniae A-9664; details: Klebsiella pneumoniae, A9664, read-out: MIC
[2] = A9537, S. aureus A-9537 +50% serum
[3] = A9537, S. aureus A-9537, no serum

SMILES | MIC (P. rettgeri A22424) [µg/mL] | MIC (E. cloacae A-9659) [µg/mL] | MIC (S. pyogenes A9604) [µg/mL] | MIC [1] [µg/mL] | MIC (S. aureus A-9537; [2]) [µg/mL] | MIC (P. morganii A15153) [µg/mL] | MIC (P. aeruginosa A-9843A) [µg/mL] | MIC (S. pneumoniae A-9585) [µg/mL] | MIC (E. coli A20341-1) [µg/mL] | MIC (P. mirabilis A-9900) [µg/mL] | MIC (S. faecalis A20688) [µg/mL] | MIC (E. cloacae A-9656) [µg/mL] | MIC (S. marcescens A20019) [µg/mL] | MIC (S. aureus A-9537; [3]) [µg/mL] | MIC (K. pneumoniae A20468) [µg/mL] | MIC (E. coli A15119; E. coli A15119) [µg/mL] | MIC (K. pneumoniae A-9664) [µg/mL] | MIC (E. coli A15119; A15119, E. coli A15119) [µg/mL]
C[C@@H](O)[C@H]1C(=O)N2C(C(=O)[O-])=C(SCc3n[n+](C)nn3C)C[C@H]12 [Example 20, (1'R,5R,6S) 3-[(1,3-dimethyl-5-tetrazolium)-methylthio]-6-(1-hydroxyethyl)-7-oxo-1-azabicyclo[3.2.0]hept-2-ene-2-carboxylate] | 8 (≈ 23.6 µM) | 8 (≈ 23.6 µM) | 0.13 (≈ 0.383 µM) | > 125 | 2 (≈ 5.89 µM) | 8 (≈ 23.6 µM) | 32 (≈ 94.3 µM) | 0.06 (≈ 0.177 µM) | – | – | – | – | – | – | – | – | – | –
C[C@@H](O)[C@H]1C(=O)N2C(C(=O)[O-])=C(SCc3n(Cc4ccccc4)cc[n+]3C)C[C@H]12 [Example 13, 3-(N-Methyl-N'-benzylimidazole-2-yl-methanethio)-6α-[1-(R)-hydroxyethyl]-7-oxo-1-azabicyclo(3.2.0)hept-2-ene-2-carboxylate] | – | 0.06 (≈ 0.145 µM) | – | 0.008 (≈ 0.0193 µM) | 0.016 (≈ 0.0387 µM) | 0.016 (≈ 0.0387 µM) | 32 (≈ 77.4 µM) | – | 0.008 (≈ 0.0193 µM) | 0.016 (≈ 0.0387 µM) | 0.13 (≈ 0.314 µM) | 0.03 (≈ 0.0726 µM) | 0.016 (≈ 0.0387 µM) | 0.008 (≈ 0.0193 µM) | 0.13 (≈ 0.314 µM) | 0.004 (≈ 0.00967 µM) | 0.03 (≈ 0.0726 µM) | –
Cc1scc(CSC2=C(C(=O)[O-])N3C(=O)[C@H]([C@@H](C)O)[C@H]3C2)[n+]1C [Example 8, 3-(2-Methyl-N-methylthiazole-4-yl-methanethio)-6α-[1-(R)-hydroxyethyl]-7-oxo-1-azabicyclo(3.2.0)hept-ene-2-carboxylate] | 0.13 (≈ 0.367 µM) | 0.13 (≈ 0.367 µM) | 0.002 (≈ 0.00564 µM) | 0.03 (≈ 0.0846 µM) | 0.03 (≈ 0.0846 µM) | – | 1 (≈ 2.82 µM) | 0.002 (≈ 0.00564 µM) | 0.03 (≈ 0.0846 µM) | 0.13 (≈ 0.367 µM) | – | 0.06 (≈ 0.169 µM) | 0.06 (≈ 0.169 µM) | 0.008 (≈ 0.0226 µM) | 0.13 (≈ 0.367 µM) | – | 0.03 (≈ 0.0846 µM) | 0.016 (≈ 0.0451 µM)
C[C@@H](O)[C@H]1C(=O)N2C(C(=O)[O-])=C(SCc3cn(C)n[n+]3CC(=O)O)C[C@H]12 [Example 17, Potassium 3-[5-(1-carboxylatomethyl-3-methyl-1,2,3-triazolium)-methanethio]-6α-[1-(R)-hydroxyethyl]-7-oxo-1-azabicyclo[3.2.0]hept-2-ene-2-carboxylate] | – | – | 0.016 | – | – | – | > 63 | 0.016 | – | 0.13 | – | – | 0.13 | – | – | – | 0.13 | –
C[C@@H](O)[C@H]1C(=O)N2C(C(=O)[O-])=C(SCc3ccc[n+](C)c3)C[C@H]12 [Example 3, 3-(N-Methylpyridine-3-yl-methanethio)-6α-[1-(R)-hydroxyethyl]-7-oxo-1-azabicyclo(3.2.0)hept-2-ene-2-carboxylate] | – | 0.13 (≈ 0.389 µM) | 0.002 (≈ 0.00598 µM) | 0.016 (≈ 0.0478 µM) | 0.016 (≈ 0.0478 µM) | 0.13 (≈ 0.389 µM) | 2 (≈ 5.98 µM) | 0.002 (≈ 0.00598 µM) | 0.016 (≈ 0.0478 µM) | 0.13 (≈ 0.389 µM) | – | 0.13 (≈ 0.389 µM) | 0.016 (≈ 0.0478 µM) | 0.016 (≈ 0.0478 µM) | 0.06 (≈ 0.179 µM) | 0.03 (≈ 0.0897 µM) | 0.06 (≈ 0.179 µM) | –
Cc1sc(CSC2=C(C(=O)[O-])N3C(=O)[C@H]([C@@H](C)O)[C@H]3C2)c(C)[n+]1C [Example 10, 3-(2,3,4,-Trimethylthiazole-5-yl-methanethio)-6α[1-(R)-hydroxyethyl]-7-oxo-1-azabicyclo(3.2.0)hept-2-ene-2-carboxylate] | 0.13 (≈ 0.353 µM) | 0.13 (≈ 0.353 µM) | – | 0.008 (≈ 0.0217 µM) | – | – | 32 (≈ 86.8 µM) | – | 0.008 (≈ 0.0217 µM) | 0.13 (≈ 0.353 µM) | – | 0.13 (≈ 0.353 µM) | – | 0.008 (≈ 0.0217 µM) | 0.13 (≈ 0.353 µM) | – | – | 0.016 (≈ 0.0434 µM)
